Results taken from US20190125753A1, “COMPOUNDS AND METHODS FOR INCREASING HEMATOPOIESIS” (University of Southern California, priority 2016, published 2019).

Key:
[1] = tested on: LTR-HSC (LSKCD34−CD135−CD150+ cells); assay: BrdU incorporation in bone marrow HSPC in vivo; parameters: species or system mouse; details: 24 or 48 hrs post administration
Text: P300/-catenin antagonists stimulate HSPC proliferation both in vitro and in vivo. In this study, 24 or 48 hrs post either DMSO or YH250 administration, BrdU was given to animals and bone marrow cells were isolated and analyzed to determine HSPC proliferation (FIG. 15A). Bone marrow cells were stained with antibodies to lineage markers (CD3, CD4, CD8, B220, CD16, Gr-1, Mac-1), antibodies to Sca-1, c-kit, CD135, CD34, CD150 and BrdU.

[2] = tested on: 7Gy irradiated animals; assay: Peripheral blood count and body weight recovery after 7Gy radiation; type: in vivo
Method: YH250 was then tested for stimulating blood count recovery in irradiated animals. In this experiment, animals received 7Gy whole body radiation and then, either YH250 or DMSO was administrated 24 hours post radiation. Animal body weight and peripheral blood counts were measured to monitor hematopoietic recovery (FIGS. 20A-20B). […] It is worth noting that it is a full lineage blood cell count recovery, including white blood cell (lymphocyte, monocyte and neutrophil), red blood cell and platelet (FIG. 20C). The neutrophil and platelet recovery is most significant.

[3] = tested on: long-term repopulating HSC; assay: HSC differentiation assay (LTR-HSC from treated mice co-cultured with GFP bone marrow cells); type: in vivo, mouse; details: 2 mg/kg, 24 hours, then 2.5-3 days co-culture
Method: DMSO or YH250 (2 mg/kg) were administrated to female C57/BL mice. (Mice were purchased from JAX stock#000664 for CD45.2 or Stock#002014 for CD45.1). 24 hours later, long-term repopulating HSC (LTR-HSC, Lin-negt/Sca-1-posit/c-kit-posit/CD34negt/CD135negt/CD48negt/CD150posit cells were purified with fluorescent flow cytometry sorting (FACS). Then, the purified cells were co-cultured with whole bone marrow cells isolated from GFP-transgenic mice (C57BL/6Tg-UBC-GFP, JAX stock#004353), which serves as supporting system in stem cell medium (Stemspan, Stemcell Technologies, Cat#9650) supplemented with SCF (stem cell factor 10 ng/ml) and TPO (thrombopoietin, 10 ng/ml). 2.5-3 days after co-culture, cells were harvested and analyzed for surface markers of CD48 and CD202b (Tie-2) (FIG. 7A).

[4] = tested on: LSK150+41−48− cells (LTR-HSC); assay: RNA sequencing of long-term repopulating HSC from treated mice; type: in vivo, mouse; details: 2 mg/kg vs DMSO, 16 hours
Method: DMSO or YH250 (2 mg/kg) were administrated to female C57/Black mice.

[5] = tested on: bone marrow HSC; assay: Competitive repopulation assay after multi-dose 5-FU; type: in vivo, mouse; details: multi-dose YH250 with 5-FU
Text: At the last round of 5-FU treatment from FIG. 25A, bone marrow cells from survived animals were isolated (CD45.2) and mixed with competitor cells (CD45.1/CD45.2 hybrid) and injected to CD45.1 mice for competitive repopulation assay. This is to assess whether YH250, by multiple uses in this experiment setting, will result in changes of HSC activity and lead to HSC exhaustion (FIG. 26A).

[6] = target: T1, p300/γ-catenin interaction (Mus musculus, UniProt B2RWS6); assay: Co-IP of bone marrow Sca-1posit cells from treated mice (anti-p300); type: in vivo; details: YH250 2 mg/kg subcutaneously, 24 hrs
T1 construct: bone marrow Sca-1posit cells were isolated with Anti-Sca-1 microbeads; from tissue; host or cells: bone marrow Sca-1 positive cells of female C57/Black mice dosed in vivo
T1 sequence (B2RWS6 2-2412 limits assumed): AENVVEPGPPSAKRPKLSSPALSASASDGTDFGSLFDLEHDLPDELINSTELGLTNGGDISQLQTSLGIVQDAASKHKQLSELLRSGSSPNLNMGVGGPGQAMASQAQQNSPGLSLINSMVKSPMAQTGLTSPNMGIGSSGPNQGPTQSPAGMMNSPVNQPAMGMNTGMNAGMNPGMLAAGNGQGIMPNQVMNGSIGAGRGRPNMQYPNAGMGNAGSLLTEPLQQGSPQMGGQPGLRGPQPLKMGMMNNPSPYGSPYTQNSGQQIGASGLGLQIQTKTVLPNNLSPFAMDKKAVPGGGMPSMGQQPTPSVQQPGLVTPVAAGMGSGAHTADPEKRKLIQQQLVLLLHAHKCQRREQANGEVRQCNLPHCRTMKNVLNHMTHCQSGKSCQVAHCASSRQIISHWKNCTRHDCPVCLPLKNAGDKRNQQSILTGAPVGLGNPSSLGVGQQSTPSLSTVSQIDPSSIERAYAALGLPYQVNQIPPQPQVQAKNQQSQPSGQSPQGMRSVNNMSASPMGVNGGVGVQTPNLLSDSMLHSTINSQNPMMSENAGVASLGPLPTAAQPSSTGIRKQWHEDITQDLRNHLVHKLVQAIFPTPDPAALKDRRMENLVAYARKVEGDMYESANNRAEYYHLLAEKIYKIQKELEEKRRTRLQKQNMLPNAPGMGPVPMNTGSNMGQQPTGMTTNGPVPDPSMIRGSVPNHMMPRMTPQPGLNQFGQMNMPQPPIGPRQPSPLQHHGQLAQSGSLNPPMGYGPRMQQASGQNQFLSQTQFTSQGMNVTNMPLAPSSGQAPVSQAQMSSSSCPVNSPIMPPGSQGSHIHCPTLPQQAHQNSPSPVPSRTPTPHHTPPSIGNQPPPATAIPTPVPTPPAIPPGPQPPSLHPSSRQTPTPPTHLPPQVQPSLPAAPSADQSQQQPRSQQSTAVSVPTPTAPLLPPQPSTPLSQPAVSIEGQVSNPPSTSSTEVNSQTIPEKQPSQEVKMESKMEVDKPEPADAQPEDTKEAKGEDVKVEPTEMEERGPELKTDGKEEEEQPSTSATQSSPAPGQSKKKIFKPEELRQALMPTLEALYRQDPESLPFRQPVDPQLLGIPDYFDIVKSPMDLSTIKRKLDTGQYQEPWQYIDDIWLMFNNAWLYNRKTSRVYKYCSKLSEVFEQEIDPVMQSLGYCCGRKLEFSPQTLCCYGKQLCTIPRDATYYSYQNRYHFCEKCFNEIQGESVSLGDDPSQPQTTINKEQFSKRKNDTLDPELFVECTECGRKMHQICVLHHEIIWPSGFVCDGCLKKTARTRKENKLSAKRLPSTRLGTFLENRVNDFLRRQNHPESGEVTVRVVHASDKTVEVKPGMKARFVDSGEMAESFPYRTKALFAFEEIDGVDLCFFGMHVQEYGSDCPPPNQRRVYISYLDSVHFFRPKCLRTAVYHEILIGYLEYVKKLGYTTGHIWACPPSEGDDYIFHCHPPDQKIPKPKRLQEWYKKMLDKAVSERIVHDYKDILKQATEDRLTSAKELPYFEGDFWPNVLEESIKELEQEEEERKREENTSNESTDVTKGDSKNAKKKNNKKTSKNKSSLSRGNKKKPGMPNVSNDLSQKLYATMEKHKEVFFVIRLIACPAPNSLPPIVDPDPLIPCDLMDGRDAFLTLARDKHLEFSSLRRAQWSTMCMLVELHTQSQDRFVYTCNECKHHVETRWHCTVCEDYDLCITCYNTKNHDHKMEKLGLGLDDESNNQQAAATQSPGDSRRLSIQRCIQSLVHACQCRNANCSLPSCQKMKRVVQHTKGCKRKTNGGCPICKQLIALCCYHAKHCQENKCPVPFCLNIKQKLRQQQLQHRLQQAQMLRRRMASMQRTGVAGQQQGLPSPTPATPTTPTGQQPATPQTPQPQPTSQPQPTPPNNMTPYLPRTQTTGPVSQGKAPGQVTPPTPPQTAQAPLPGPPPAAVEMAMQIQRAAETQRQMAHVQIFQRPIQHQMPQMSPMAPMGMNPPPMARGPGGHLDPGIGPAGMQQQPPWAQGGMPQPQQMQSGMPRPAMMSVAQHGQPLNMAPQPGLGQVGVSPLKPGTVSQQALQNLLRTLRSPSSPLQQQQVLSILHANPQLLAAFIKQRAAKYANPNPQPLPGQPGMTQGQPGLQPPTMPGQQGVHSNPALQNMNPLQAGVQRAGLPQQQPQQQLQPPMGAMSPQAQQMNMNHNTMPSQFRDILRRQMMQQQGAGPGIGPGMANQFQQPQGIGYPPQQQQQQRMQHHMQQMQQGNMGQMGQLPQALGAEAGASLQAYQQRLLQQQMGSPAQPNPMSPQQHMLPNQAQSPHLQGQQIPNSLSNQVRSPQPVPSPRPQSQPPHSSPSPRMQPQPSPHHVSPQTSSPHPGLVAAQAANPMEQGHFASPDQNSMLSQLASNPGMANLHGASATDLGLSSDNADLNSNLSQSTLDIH
Method: YH250 was used in this study. Female C57/Black mice were administrated with either DMSO (solvent control) or YH250 (2 mg/kg) subcutaneously. 24 hrs later, bone marrow Sca-1posit cells were isolated with Anti-Sca-1 microbeads (Miltenyi Biotec, Cat#130-092-529) for co-immunoprecipitation (FIG. 4A). Cells were then lysed and incubated with either anti-CBP (A22) or anti-p300 (C20) antibodies. Then, the immunoprecipitation complex were electrophoresed and detected with antibodies to either β-catenin or γ-catenin. […] This confirms that YH250 directly disrupts the p300/catenin interaction thereby enhancing the CBP/catenin interaction in HSPCs.

[7] = tested on: bone marrow HSPC; assay: Competitive repopulation assay after 8.5Gy radiation (HSPC exhaustion); type: in vivo
[8] = administered 24 hours post radiation

COc1cccc(CNC(=O)N2C3CN(Cc4cc(Cl)cc(Cl)c4N(C)C)C(=O)[C@H](Cc4ccc(O)cc4)N3C(=O)CN2C)c1OC (some centres unmarked) [YH250]
BrdU positive cells in LTR-HSC [1]: more BrdU positive cells
blood cell count at nadir points vs DMSO [2]: significantly higher
blood count recovery (full lineage) [2, 8]: Accelerated blood count recovery
body weight [2, 8]: very little weight drop
CD48posit cells vs DMSO ([3]; p=0.010): significantly less
non-differentiated CD48negt/CD202bposit cells vs DMSO ([3]; p=0.04): significantly more
Fold-Change A430005L14Rik [4]: 2.07 fold
Fold-Change Car1 [4]: 46.29 fold
Fold-Change Casp6 [4]: 2.56 fold
Fold-Change Cd52 [4]: 3.09 fold
Fold-Change Cd53 [4]: 2.79 fold
Fold-Change Cd69 [4]: 2.44 fold
Fold-Change Cd74 [4]: 2.30 fold
Fold-Change Cd79a [4]: 5.49 fold
Fold-Change Cdc123 [4]: 2.13 fold
Fold-Change Dtx3 [4]: −2.12 fold
Fold-Change Gm21897 [4]: −2.18 fold
Fold-Change Gm26377 (miRNA) [4]: −58.02 fold
Fold-Change Ighm [4]: 6.14 fold
Fold-Change Ighv11-2 [4]: 8.18 fold
Fold-Change Igj [4]: 3.36 fold
Fold-Change Igkc [4]: 3.93 fold
Fold-Change Igkv14-126 [4]: 8.00 fold
Fold-Change Igkv19-93 [4]: 21.16 fold
Fold-Change Iglc2 [4]: 4.58 fold
Fold-Change Il2rg [4]: 2.03 fold
Fold-Change Kcnq1ot1 (antisense) [4]: −2.37 fold
Fold-Change Ldlr [4]: −3.57 fold
Fold-Change Ly6c2 [4]: 7.17 fold
Fold-Change Mid1 [4]: −3.98 fold
Fold-Change Mrpl30 [4]: 2.07 fold
Fold-Change Ndufaf7 [4]: 3.45 fold
Fold-Change Pias1 [4]: 2.02 fold
Fold-Change Psmf1 [4]: 2.48 fold
Fold-Change RP23-99K18.3 (lincRNA) [4]: −2.28 fold
Fold-Change Tgtp1 [4]: 2.85 fold
Fold-Change Tmed4 [4]: 2.06 fold
lineage bias in short-term and long-term repopulation [5]: no lineage bias
p300/γ-catenin interaction [6]: inhibits p300/γ-catenin interaction
engraftment level vs DMSO treated animals ([7]; bone marrow from 8.5Gy irradiated animals): similar
HSPC exhaustion ([7]; one dose 24 hours post lethal dose radiation): does not exhaust HSPC
